For assay [1], the system named is Bacillus subtilis/ATCC6633. As to the kind of experiment: MIC, broth micro dilution assay (NCCLS). The format is cell-based. How it is done: (§1) The serial broth dilution method used Mueller-Hinton medium except for the Streptococcus pneumoniae which was tested in 50% Mueller-Hinton medium and 50% Todd Hewitt medium. The final bacterial inoculate contained approximately 5×10^5 cfu/well and was run on microtiter plates. The volume of each well was 100 μL and the plates were incubated at 35° C. for 18 hours in ambient air. The MIC was defined as the lowest drug concentration that prevented visible growth.

The subject of the next assay is Enterococcus faecalis. Kind of assay: MIC, broth micro dilution assay (NCCLS). Format: cell-based. The note with it: strain A20688. Here is the method:
as §1

The subject of a further assay is Enterococcus faecium. Kind of assay: MIC, broth micro dilution assay (NCCLS). The format is cell-based. Here is the method: as §1
For assay [2], the system named is Moraxella catarrhalis/β-lactamase positive. As to the kind of experiment: MIC, broth micro dilution assay (NCCLS). The note with it: strain A22344. Format: cell-based. How it is done:
as §1

The next assay concerns Staphylococcus aureus. As to the kind of experiment: MIC, broth micro dilution assay (NCCLS). Format: cell-based. Here is the method: as §1
In assay [3] the test system is Staphylococcus epidermidis. Kind of assay: MIC, broth micro dilution assay (NCCLS). Format: cell-based. The note with it: strain A24548. How it is done:
as §1

Assay [4] concerns Staphylococcus haemolyticus. As to the kind of experiment: MIC, broth micro dilution assay (NCCLS). Format: cell-based. To be noted: strain A27298. Here is the method: as §1
Another assay concerns Streptococcus pneumoniae. Kind of assay: MIC, broth micro dilution assay (NCCLS). Format: cell-based. Here is the method:
as §1

The test system of assay [5] is Staphylococcus aureus A15090. As to the kind of experiment: Systemic Staphylococcus aureus infection model. The format is in vivo. The note with it: female ICR mice infected IP with S. aureus A15090; compound SC at 1 and 4 hours post-infection. Here is the method: Nocathiacin IV and nocathiacin IV 6-deoxyglucoside were evaluated for antibiotic activity in vivo, in a systemic infection model using female ICR mice. The animals were infected intraperitoneally (IP) with 6.5×10^6 CFU of an overnight culture of Staphylococcus aureus A15090 suspended in 7% mucin. The compound was dissolved in a test formulation consisting of 10% DMSO, 5% Tween 80 and 85% water. The solution was administered subcutaneously (SC) at 100 mg/kg total dose (2×50 mg/kg doses at 1 and 4 hours post-infection). The PD50 of nocathiacin IV was determined to be 1.07 mg/kg. The PD50 of nocathiacin IV 6-deoxyglucoside was determined to be 6.4 mg/kg.

The mark [6] stands for this setting: Enterococcus faecalis + 50% calf serum.
Where [7] appears, read: Enterococcus faecalis, read-out: MIC.
The mark [8] stands for this setting: Enterococcus faecium/vancomycin resistant, strain A28142.
Setting [9] is: 209P / ATCC 6538P, Staphylococcus aureus/209P/ATCC6538P, strain A9497.
Where [10] appears, read: Staphylococcus aureus + 50% calf serum, strain A15090.
The mark [11] stands for this setting: Staphylococcus aureus + 50% calf serum, strain A27223.
Setting [12] is: Staphylococcus aureus/homo methicillin resistant, strain A27223.
Setting [13] is: Staphylococcus aureus/β lactamase positive, strain A15090.
[14] abbreviates: Streptococcus pneumoniae, strain A9585, 50% Mueller-Hinton/50% Todd Hewitt medium.
Where [15] appears, read: Streptococcus pneumoniae/penicillin intermediate, strain A27881.
Setting [16] is: Streptococcus pneumoniae/penicillin resistant, strain A28272, read-out: MIC.

Values after ≈ are worked out from the molar mass of the structure shown. Where a name gives a salt, the structure may show the parent alone. Read-outs that look alike come from different tables or passages of the source.

Broadly, the MIC is the lowest concentration that inhibits growth of the organism. On to `CO/C(C)=C1/NC(=O)C(C(C)O)NC(=O)c2csc(n2)-c2cc(O)c(-c3nc(C(N)=O)cs3)nc2-c2csc(n2)C2COC(=O)c3c4c5c(cccc5n3O)COC(=O)C(OC3CC(C)(O)C(N(C)C)C(C)O3)C(OC4)C(NC(=O)c3csc1n3)c1nc(cs1)C(=O)N2` (stereo not shown) [Nocathiacin IV (HCI salt), nocathiacin IV], for which the minimal inhibitory concentration (MIC) in [1] turned out to be 0.06 µg/mL; with Enterococcus faecalis (setting [6]), 0.03 µg/mL; in the assay on Enterococcus faecalis (setting [7]) it was 0.03 µg/mL; with Enterococcus faecium (setting [8]), 0.03 µg/mL; against Enterococcus faecium (strain A24885), 0.06 µg/mL; in [2] it was 0.25 µg/mL. Also, the MIC against Staphylococcus aureus (setting [9]) came out at 0.03 µg/mL; in the assay on Staphylococcus aureus (setting [10]), 0.03 µg/mL; in the assay on Staphylococcus aureus (setting [11]), 0.03 µg/mL; against Staphylococcus aureus (setting [12]) it was 0.03 µg/mL; against Staphylococcus aureus (setting [13]), 0.03 µg/mL; in assay [3], 0.06 µg/mL. The MIC in assay [4] worked out at 0.06 µg/mL; against Streptococcus pneumoniae (setting [14]), 0.001 µg/mL; in the assay on Streptococcus pneumoniae (setting [15]), 0.001 µg/mL; in the assay on Streptococcus pneumoniae (setting [16]) it was 0.001 µg/mL.

In the case of `CO/C(C)=C1/NC(=O)C(C(C)O)NC(=O)c2csc(n2)-c2cc(OC3OC(C)C(O)C(O)C3O)c(-c3nc(C(N)=O)cs3)nc2-c2csc(n2)C2COC(=O)c3c4c5c(cccc5n3O)COC(=O)C(OC3CC(C)(O)C(N(C)C)C(C)O3)C(OC4)C(NC(=O)c3csc1n3)c1nc(cs1)C(=O)N2` (stereo not shown) [nocathiacin IV 6-deoxyglucoside], the minimum inhibitory concentration (MIC) in assay [1] stood at 0.5 µg/mL (≈ 0.33 µM); in the assay with Enterococcus faecalis (setting [6]) it was 0.25 µg/mL; with Enterococcus faecalis (setting [7]), 0.25 µg/mL (≈ 0.165 µM); against Enterococcus faecium (setting [8]) it was 0.5 µg/mL (≈ 0.33 µM); in the assay on Enterococcus faecium (strain A24885), 0.5 µg/mL (≈ 0.33 µM); in assay [2] it was 2 µg/mL (≈ 1.32 µM). Further, the MIC with Staphylococcus aureus (setting [9]) was 0.5 µg/mL (≈ 0.33 µM); with Staphylococcus aureus (setting [10]), 0.25 µg/mL; in the assay with Staphylococcus aureus (setting [11]) it was 0.25 µg/mL; in the assay with Staphylococcus aureus (setting [12]), 0.5 µg/mL (≈ 0.33 µM); against Staphylococcus aureus (setting [13]), 0.5 µg/mL (≈ 0.33 µM); in [3], 0.25 µg/mL (≈ 0.165 µM). The minimum inhibitory concentration (MIC) was 0.5 µg/mL (≈ 0.33 µM) in assay [4], 0.03 µg/mL (≈ 0.0198 µM) with Streptococcus pneumoniae (setting [14]), 0.03 µg/mL (≈ 0.0198 µM) against Streptococcus pneumoniae (setting [15]) and 0.03 µg/mL (≈ 0.0198 µM) in the assay on Streptococcus pneumoniae (setting [16]). In assay [5], this molecule displayed a PD50 of 6.4 mg/kg.

For the molecule `CO/C(C)=C1/NC(=O)C(C(C)O)NC(=O)c2csc(n2)-c2cc(O)c(-c3nc(C(N)=O)cs3)nc2-c2csc(n2)C2COC(=O)c3c4c5c(cccc5n3O)COC(=O)C(OC3CC(C)(O)C(N(C)C)C(C)O3)C(OC4)C(NC(=O)c3csc1n3)c1nc(cs1)C(=O)N2` (stereo not shown) [nocathiacin IV], the PD50 in assay [5] is on record as 1.07 mg/kg.

The values are drawn from US20020055465A1, “Nocathiacin antibiotics prepared by biotransformation or chemical methods” (priority 2000, published 2002).
